Laboratory results reported in patent publication US20260242390A1, “TOTAL SYNTHESES OF PORTIMINE A AND ANALOGUES THEREOF AS SMALL MOLECULE MODULATORS OF NMD3” (priority 2023, published 2026).
Entries after “also recorded” stand apart in the source; their conditions may differ.

Target: T1, NMD3 (Homo sapiens, UniProt Q96D46)
T1 construct: endogenous in cells
T1 sequence (Q96D46 1-503): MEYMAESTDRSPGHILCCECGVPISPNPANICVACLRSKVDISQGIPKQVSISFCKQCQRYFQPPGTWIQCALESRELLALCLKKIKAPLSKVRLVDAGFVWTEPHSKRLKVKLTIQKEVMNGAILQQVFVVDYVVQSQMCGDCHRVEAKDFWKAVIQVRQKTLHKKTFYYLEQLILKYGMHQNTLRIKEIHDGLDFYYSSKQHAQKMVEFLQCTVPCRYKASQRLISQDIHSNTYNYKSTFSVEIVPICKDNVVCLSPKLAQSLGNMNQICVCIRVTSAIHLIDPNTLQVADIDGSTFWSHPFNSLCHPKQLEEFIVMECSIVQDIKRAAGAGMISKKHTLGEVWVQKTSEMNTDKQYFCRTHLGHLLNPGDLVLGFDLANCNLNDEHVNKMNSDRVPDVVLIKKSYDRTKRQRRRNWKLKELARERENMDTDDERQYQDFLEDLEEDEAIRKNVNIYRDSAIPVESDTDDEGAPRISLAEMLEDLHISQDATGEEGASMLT
Assay: Chemo-precipitation / photoaffinity labeling of NMD3
Type: binding
Conditions: for labeling of endogenous NMD3 by probe / competition of PA-DA labeling of endogenous NMD3: Jurkat and HCC1806 cells; for labeling of endogenous NMD3 by probe: probe 0.5 uM, UV irradiated; for competition of PA-DA labeling of endogenous NMD3: PA-DA 0.5 uM, competitor 5 uM
Experimental: FIG. 4. Validation of NMD3 as target of Portimine A by Chemo-precipitation (ChP). Portimine A mouse pharmacokinetic properties and fast acting in vitro cell-based target engagement properties based on compound wash-out. (A) Pharmacokinetic studies of mouse intraperitoneal (i.p.) and oral (p.o.) administration for portimine (n=3). […] Impact of PA [0.3 or 1 mg/kg intraperitoneally] on MC38 tumor growth in WT mice (n=6). (C) Kaplan-Myer survival curve of WT MC38 tumor-bearing mice (n=6) after treatment with PA as described in (D). Mice were euthanized when tumor area exceeded 2000 mm^3. Statistical analysis was performed using ANOVA analysis followed by multiple comparisons test, * p≤0.05. Treatment condition: Jurkat (60 M per condition); PA-DA/ePA-DA concentration: 0.5 uM, PA or ePA: 5 uM; Incubate with probe with or without competitors (PA, ePA) for 30 min; UV irradiated for 20 min. (0.5 uM PA-DA add a no-UV condition); Standard pulldown & biotin-enrichment and western blot analysis (Elute condition: 2× sample buffer+500 uM biotin, boil for 20 mins); Primary antibody NMD3 (ProteinTech, 1:150), Actin (BioRad, 1:10000).
FIG. 5. […] (I, J) Confirmation of PA-DA engagement of NMD3 in Jurkat and HCC1806 cells. […] Treatment condition: Jurkat (5M per well). Portimine A concentration: 2 nM-1000 nM; In total treat cell for 12 hours.
• 1) Portimine A and its functional analogs show stereo-selective acute toxicity in cancer cells (FIG. 1). […] (B) Structure of portimine related analogs: phenyl-portimine A (Ph-PA, 36) and epi-portimine A (ePA, 38). Structure of fully functionalized portimine A-based epimeric probe pair: portimine A-diazirine-alkyne (PA-DA, 35-2) and epi-portimine A-diazirine-alkyne (ePA-DA, 35-1). (C) Cell viability analysis of portimine A and analogs. Jurkat cells were treated with increasing concentrations of portimine A and analogs for 24 hours. All presented data as mean of biological replicated experiments (n=3). […] Jurkat cells were treated with portimine A or analogs for 12 hours at 10 nM. […] Structurally related negative control ePA and PB are non-toxic in all cell types in the current concentrate range. PBMCs (25k per well), Jurkat (10k per well). […] Cell cycle analysis in Jurkat cells (FIG. 2). Jurkat cells were treated with 10 nM of indicated compounds for 24 hours, and propodium iodide was used to identify different stages of cells by flow cytometry. […] (A) PA and Ph-PA show less toxic to healthy PBMCs compared to Jurkat cells. […] (B) Immunoblot of caspase-3 in Jurkat and PBMCs with indicated conditions. […] (A) Pharmacokinetic studies of mouse intraperitoneal (i.p.) and oral (p.o.) administration for portimine (n=3). […] Impact of PA [0.3 or 1 mg/kg intraperitoneally] on MC38 tumor growth in WT mice (n=6). (C) Kaplan-Myer survival curve of WT MC38 tumor-bearing mice (n=6) after treatment with PA as described in (D). Mice were euthanized when tumor area exceeded 2000 mm^3. Statistical analysis was performed using ANOVA analysis followed by multiple comparisons test, * p≤0.05. Treatment condition: Jurkat (60 M per condition); PA-DA/ePA-DA concentration: 0.5 uM, PA or ePA: 5 uM; Incubate with probe with or without competitors (PA, ePA) for 30 min; UV irradiated for 20 min. (0.5 uM PA-DA add a no-UV condition), Standard pulldown & biotin-enrichment and western blot analysis (Elute condition: 2× sample buffer+500 uM biotin, boil for 20 mins); Primary antibody NMD3 (ProteinTech, 1:150), Actin (BioRad, 1:10000). […] Chemical proteomic profiling with PA-DA in Jurkat cells (A, B, C, G) and HCC1806 cells (D, E, F, H) show NMD3 is the primary target candidate of portimine A. Volcano plot in panels A and D show protein competition in cells treated with active photoaffinity probe PA-DA (500 nM) and DMSO or the active competitor portimine A (PA, […]), dotted lines indicate threshold of fold change <4, p-value>0.05. […] (I, J) Confirmation of PA-DA engagement of NMD3 in Jurkat and HCC1806 cells. […] Treatment condition: Jurkat (5M per well). […]

Row | SMILES | binding to recombinantly overexpressed NMD3 in cells | labeling of endogenous NMD3 by probe | competition of PA-DA labeling of endogenous NMD3 | binding to NMD3 (target validation) (endogenous NMD3, Jurkat, pulldown and western blot) | nature of the interaction with NMD3 (no-UV control)
1 | C#CCCC1(CCNC(=O)c2ccc(C3=C[C@@H]4[C@@H]5O[C@]6(CC[C@H](O6)C(C)C[C@@H](O)C5=O)CC(O)C5=NCC[C@@]54CC3)cc2)N=N1 (stereo partly shown) [PA-DA, portimine A-diazirine-alkyne] | not observed | UV-dependent labeling |  |  | 
2 | C=CC1=C[C@@H]2[C@@H]3O[C@]4(CC[C@H](O4)C(C)C[C@@H](O)C3=O)CC(O)C3=NCC[C@@]32CC1 (stereo partly shown) [PA, portimine A] |  |  | blocked | selectively binds; also recorded: confirmed as a target | non-covalent
3 | C#CCCC1(CCNC(=O)c2ccc(C3=C[C@@H]4[C@@H]5O[C@]6(CC[C@H](O6)C(C)C[C@@H](O)C5=O)C[C@@H](O)C5=NCC[C@@]54CC3)cc2)N=N1 (stereo partly drawn) [ePA-DA, epi-portimine A-diazirine-alkyne] |  | not substantially labeled |  |  | 
4 | C=CC1=C[C@@H]2[C@@H]3O[C@]4(CC[C@H](O4)C(C)C[C@@H](O)C3=O)C[C@@H](O)C3=NCC[C@@]32CC1 (stereo partly drawn) [ePA, epi-portimine A] |  |  | not |  | 
